Assay results taken from the supplement of paper PMC10307832.

Key:
Assay in all cases: relative viability (nuclei count vs DMSO), 5 days (fraction); higher = more cells survive
201T = tested on: 201T
Summary of the method: (§1)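 For relative viability, nuclei counts in treated wells were divided by those in vehicle wells. Lung cancer cell lines had been pin-tool dosed in 1536-well plates the day after seeding and cultured for 5 days, then fixed and stained in one step (final 0.05% Triton X-100, 1% formaldehyde, 1 ug/ml Hoechst) and imaged at 4×. Doses were one drug alone or a fixed anchor-drug dose plus five library-drug doses (not always all listed) in √10 steps, and values are duplicate-plate medians.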

BEN = tested on: BEN
Summary of the method: as §1

HARA = tested on: HARA
Summary of the method: as §1

HCC-366 = tested on: HCC-366
Summary of the method: as §1

HCC-44 = tested on: HCC-44
Summary of the method: as §1

HCC-78 = tested on: HCC-78
Summary of the method: as §1

LU99A = tested on: LU99A
Summary of the method: as §1

NCI-H1355 = tested on: NCI-H1355
Summary of the method: as §1

NCI-H1437 = tested on: NCI-H1437
Summary of the method: as §1

NCI-H1734 = tested on: NCI-H1734
Summary of the method: as §1

NCI-H2009 = tested on: NCI-H2009
Summary of the method: as §1

NCI-H2126 = tested on: NCI-H2126
Summary of the method: as §1

NCI-H2347 = tested on: NCI-H2347
Summary of the method: as §1

NCI-H2405 = tested on: NCI-H2405
Summary of the method: as §1

NCI-H358 = tested on: NCI-H358
Summary of the method: as §1

NCI-H441 = tested on: NCI-H441
Summary of the method: as §1

NCI-H520 = tested on: NCI-H520
Summary of the method: as §1

NCI-H727 = tested on: NCI-H727
Summary of the method: as §1

NCI-H838 = tested on: NCI-H838
Summary of the method: as §1

PC-3 [JPC-3] = tested on: PC-3 [JPC-3]
Summary of the method: as §1

SW 1573 = tested on: SW 1573
Summary of the method: as §1

UMC-11 = tested on: UMC-11
Summary of the method: as §1

SMILES: COCC1(CO)C(=O)C2CCN1CC2 (configuration not stated) [PRIMA-1MET] + CS(=O)(=O)N1CCN(Cc2cc3nc(-c4cccc5[nH]ncc45)nc(N4CCOCC4)c3s2)CC1 [Pictilisib] (partner 1 µM)
- relative viability (201T; first compound 0.2 µM): 0.709
- relative viability (201T; first compound 0.6325 µM): 0.593
- relative viability (201T; first compound 2 µM): 0.525
- relative viability (201T; first compound 6.325 µM): 0.741
- relative viability (201T; first compound 20 µM): 0.694
- relative viability (BEN; first compound 0.2 µM): 0.608
- relative viability (BEN; first compound 0.6325 µM): 0.514
- relative viability (BEN; first compound 6.325 µM): 0.521
- relative viability (BEN; first compound 20 µM): 0.464
- relative viability (HARA; first compound 0.2 µM): 0.374
- relative viability (HARA; first compound 0.6325 µM): 0.417
- relative viability (HARA; first compound 6.325 µM): 0.446
- relative viability (HARA; first compound 20 µM): 0.403
- relative viability (HCC-366; first compound 0.2 µM): 0.204
- relative viability (HCC-366; first compound 0.6325 µM): 0.118
- relative viability (HCC-366; first compound 6.325 µM): 0.123
- relative viability (HCC-366; first compound 20 µM): 0.0846
- relative viability (HCC-44; first compound 0.2 µM): 0.569
- relative viability (HCC-44; first compound 0.6325 µM): 0.414
- relative viability (HCC-44; first compound 2 µM): 0.426
- relative viability (HCC-44; first compound 6.325 µM): 0.651
- relative viability (HCC-44; first compound 20 µM): 0.611
- relative viability (HCC-78; first compound 0.2 µM): 0.226
- relative viability (HCC-78; first compound 0.6325 µM): 0.222
- relative viability (HCC-78; first compound 6.325 µM): 0.138
- relative viability (HCC-78; first compound 20 µM): 0.0597
- relative viability (LU99A; first compound 0.2 µM): 0.414
- relative viability (LU99A; first compound 0.6325 µM): 0.323
- relative viability (LU99A; first compound 2 µM): 0.386
- relative viability (LU99A; first compound 6.325 µM): 0.308
- relative viability (LU99A; first compound 20 µM): 0.154
- relative viability (NCI-H1355; first compound 0.2 µM): 0.366
- relative viability (NCI-H1355; first compound 0.6325 µM): 0.35
- relative viability (NCI-H1355; first compound 2 µM): 0.308
- relative viability (NCI-H1355; first compound 6.325 µM): 0.36
- relative viability (NCI-H1355; first compound 20 µM): 0.541
- relative viability (NCI-H1437; first compound 0.2 µM): 0.463
- relative viability (NCI-H1437; first compound 0.6325 µM): 0.481
- relative viability (NCI-H1437; first compound 2 µM): 0.356
- relative viability (NCI-H1437; first compound 6.325 µM): 0.466
- relative viability (NCI-H1437; first compound 20 µM): 0.412
- relative viability (NCI-H1734; first compound 0.2 µM): 0.446
- relative viability (NCI-H1734; first compound 0.6325 µM): 0.465
- relative viability (NCI-H1734; first compound 2 µM): 0.408
- relative viability (NCI-H1734; first compound 6.325 µM): 0.386
- relative viability (NCI-H1734; first compound 20 µM): 0.0877
- relative viability (NCI-H2009; first compound 0.2 µM): 0.337
- relative viability (NCI-H2009; first compound 0.6325 µM): 0.68
- relative viability (NCI-H2009; first compound 2 µM): 0.506
- relative viability (NCI-H2009; first compound 6.325 µM): 0.513
- relative viability (NCI-H2009; first compound 20 µM): 0.0085
- relative viability (NCI-H2126; first compound 0.2 µM): 0.459
- relative viability (NCI-H2126; first compound 0.6325 µM): 0.485
- relative viability (NCI-H2126; first compound 2 µM): 0.418
- relative viability (NCI-H2126; first compound 6.325 µM): 0.548
- relative viability (NCI-H2126; first compound 20 µM): 0.488
- relative viability (NCI-H2347; first compound 0.2 µM): 0.416
- relative viability (NCI-H2347; first compound 0.6325 µM): 0.741
- relative viability (NCI-H2347; first compound 6.325 µM): 0.675
- relative viability (NCI-H2347; first compound 20 µM): 0.561
- relative viability (NCI-H2405; first compound 0.2 µM): 0.278
- relative viability (NCI-H2405; first compound 0.6325 µM): 0.497
- relative viability (NCI-H2405; first compound 6.325 µM): 0.359
- relative viability (NCI-H2405; first compound 20 µM): 0.0865
- relative viability (NCI-H358; first compound 0.2 µM): 0.392
- relative viability (NCI-H358; first compound 0.6325 µM): 0.318
- relative viability (NCI-H358; first compound 6.325 µM): 0.319
- relative viability (NCI-H358; first compound 20 µM): 0.0332
- relative viability (NCI-H441; first compound 0.2 µM): 0.504
- relative viability (NCI-H441; first compound 0.6325 µM): 0.325
- relative viability (NCI-H441; first compound 2 µM): 0.473
- relative viability (NCI-H441; first compound 6.325 µM): 0.411
- relative viability (NCI-H441; first compound 20 µM): 0.264
- relative viability (NCI-H520; first compound 0.2 µM): 0.345
- relative viability (NCI-H520; first compound 0.6325 µM): 0.285
- relative viability (NCI-H520; first compound 6.325 µM): 0.368
- relative viability (NCI-H520; first compound 20 µM): 0.13
- relative viability (NCI-H727; first compound 0.2 µM): 0.258
- relative viability (NCI-H727; first compound 0.6325 µM): 0.341
- relative viability (NCI-H727; first compound 2 µM): 0.241
- relative viability (NCI-H727; first compound 6.325 µM): 0.178
- relative viability (NCI-H727; first compound 20 µM): 0.109
- relative viability (NCI-H838; first compound 0.2 µM): 0.46
- relative viability (NCI-H838; first compound 0.6325 µM): 0.448
- relative viability (NCI-H838; first compound 2 µM): 0.355
- relative viability (NCI-H838; first compound 6.325 µM): 0.589
- relative viability (NCI-H838; first compound 20 µM): 0.632
- relative viability (PC-3 [JPC-3]; first compound 0.2 µM): 0.681
- relative viability (PC-3 [JPC-3]; first compound 0.6325 µM): 0.653
- relative viability (PC-3 [JPC-3]; first compound 2 µM): 0.652
- relative viability (PC-3 [JPC-3]; first compound 6.325 µM): 0.777
- relative viability (PC-3 [JPC-3]; first compound 20 µM): 0.688
- relative viability (SW 1573; first compound 0.2 µM): 0.463
- relative viability (SW 1573; first compound 0.6325 µM): 0.409
- relative viability (SW 1573; first compound 2 µM): 0.45
- relative viability (SW 1573; first compound 6.325 µM): 0.0446
- relative viability (SW 1573; first compound 20 µM): 0.0283
- relative viability (UMC-11; first compound 0.2 µM): 0.945
- relative viability (UMC-11; first compound 0.6325 µM): 0.759
- relative viability (UMC-11; first compound 2 µM): 0.594
- relative viability (UMC-11; first compound 6.325 µM): 0.825
- relative viability (UMC-11; first compound 20 µM): 0.786
